According to patent US8568806B2, “Stable and bioavailable compositions of isomers of lycopene for skin and hair” (Indena, S.p.A., priority 2006, dated 2013):

Assay: Stability of pure lycopene isomers in n-hexane during storage at room temperature
Type: physicochemical
Conditions: storage in n-hexane at room temperature in the absence of light
Experimental: Pure 5-Z, 9-Z, 13-Z and all-E lycopene were isolated from isomerised tomato oleoresin (submitted to 1 hour heating), by collecting the fractions containing the corresponding peaks after HPLC separation (see below the experimental conditions). Peaks were collected during two consecutive HPLC runs and the corresponding fractions were pooled.
Lycopene isomer profiles were determined by normal phase HPLC according to the method described by Schierle et al. (Schierle, J., Bretzel, W., Buhler, I., Faccin, N., Hess, D., Steiner, K., Schuep, W. (1997). Food. Chem. 59: 459). Samples of isomerized oleoresins were dissolved in n-hexane containing 50 ppm BHT and spun at maximum speed in an Eppendorf Lab centrifuge. The resulting supernatants were immediately analyzed by HPLC. The HPLC system used was a 1100 series Hewlett-Packard model equipped with an ultraviolet-visible photodiode array detector. Data were simultaneously acquired at 470 nm, 464 nm, 346 nm and 294 nm. […]
Amounts of lycopene isomers were calculated based on surface areas of the HPLC peaks using the same extinction coefficient as the all-E lycopene. […]
Stability of lycopene isomers was investigated both in n-hexane and in a tomato oleoresin isomerized by 4 hour heating in ethyl acetate. […] Total lycopene concentration and lycopene isomer profiles were measured at various time intervals during the storage. […]

Structure (SMILES): CC(C)=CCC/C(C)=C/C=C/C(C)=C/C=C/C(C)=C\C=C\C=C(C)\C=C\C=C(C)\C=C\C=C(/C)CCC=C(C)C [13-Z lycopene]
- relative stability of the isomer: less stable isomer
